Laboratory results taken from US4177287A, “Pharmaceutical compositions of N1 -acyl-N2 -phenyldiaminopropanols and process for their preparation” (Kali-Chemie Pharma GmbH, priority 1977, dated 1979).
Counter-ions that a name gives are not always drawn.

Key:
[1] = test system: indomethacine-induced ulcers; assay: Effectiveness against indomethacine-induced ulcers in the rat; type: in vivo; details: for inhibition at 68 mg/kg: dosage 68 mg/kg p.o.
Method: To at least 6 male rats, having a body-weight of from 170 to 220 g, dosages of the test compounds are administered orally in an amount of 0.5 ml of a suspension medium per 100 g animal body-weight. The animals of the blank control group received the corresponding amount by volume of the suspension medium only. One hour after application of the test compounds, a dosage of 20 mg per kg of indomethacine contained in an amount of 0.5 ml of a suspension per 100 g animal body-weight, are orally applied to each animal for producing ulcers. 24 hours after the application of indomethacine, the animals are sacrificed.
The mean value and the standard deviation of the numbers of ulcers is calculated and subsequently the inhibiting activity of the test compounds and a standard compound are calculated as percent inhibition compared with the blank control group.

secretion in the stomach = assay: Effect on the secretion in the stomach of narcotized rats (determination of the pH-value); type: in vivo, rat; details: for inhibition at 300 mg/kg: dosage 300 mg/kg p.o., narcotized rat, acetylcholine 10 mg/kg i.p. control = 100
Method: 3. Effect on the secretion in the stomach of narcotized rats (determinationof the pH-value)
The test is performed on narcotized (urethane narcosis) male rats, having a body weight of from 200-230 g. For this purpose N/4000-sodium hydroxide solution is perfused into the stomachs of rats at a rate of 1 ml per minute by means of a cardia- and pylorus-catheter. The pH value of the perfusate, which leaves the stomach by way of the pylorus catheter, is determined by means of a one-rod measuring system, and is continuously registered.
In order to perform a comparative control test, after a pre-run period of 20 minutes, 10 mg per kg of acetylcholine are applied intraperitoneously. The resulting comparative control value is defined as being 100.
For evaluation, the surface-integral is calculated numerically with the aid of the rule of Simpson. The degree of inhibition of the secretion is calculated from the difference between the surfaces before and after the application of the test compound.

in vivo = details: mouse, po, single application, 7-day, unfed white NMRI-mice, read-out: Toxicity LD50 p.o.
Method: The acute 7-day-toxicity is determined after a single application per os in white NMRI-mice which had not been fed. The calculation of the LD50 is carried out by probitanalysis by means of electronic data processing (see L. Cavalli-Sforza, Gustav Fischer-Verlag, Stuttgart (1964), Grundbegriffe der Biometrie, pp. 153).

ulcer = details: background; cited from earlier work
[2] = po, rat, indomethacine 20 mg/kg p.o., 24 hours

Structure (SMILES) | inhibition at 68 mg/kg [1, 2] [%] | inhibition at 300 mg/kg (secretion in the stomach) [%] | LD50 at 168 h (in vivo) [mg/kg] | effect on the ulcer (in words) ([1]; at the low dosage that inhibits secretion (footnote to Table 1)) | inhibition at 12 mg/kg ([1]; po, dosage 12 mg/kg p.o., rat, indomethacine 20 mg/kg p.o., 24 hours) [%] | inhibition at 0.5 mg/kg (secretion in the stomach; Rattus norvegicus, ip, read-out: Inhibition of secretion in the stomach, % inhibition) [%] | inhibition of the secretion in the stomach (in words) (secretion in the stomach; at a low dosage already (footnote to Table 1)) | side effects in ulcer therapy (in words) (ulcer) | success in ulcer therapy (in words) (ulcer) | inhibition at 75 mg/kg ([1]; po, dosage 75 mg/kg p.o., rat, indomethacine 20 mg/kg p.o., 24 hours) [%]
COc1ccc(C(=O)NCC(O)CN(C)c2ccc(Cl)cc2)cc1OC (stereo not drawn) [Compound 1, N1-(3,4-dimethoxybenzoyl)-N2-methyl-N2-(4-chlorophenyl)-1,3-diaminopropan-2-ol] | 44 | 0 | > 6810 |  |  |  |  |  |  | 
CN(CC(O)CNC(=O)c1ccccc1F)c1ccc(Cl)cc1 (stereo not drawn) [Compound 2, N1-(2-fluorobenzoyl)-N2-methyl-N2-(4-chlorophenyl)-1,3-diaminopropan-2-ol] | 49 | 0 | > 1470 |  |  |  |  |  |  | 
CN1[C@@H]2CC[C@H]1C[C@@H](OC(=O)C(CO)c1ccccc1)C2 (stereo partly drawn) [A, atropine sulfate, reference compound] |  |  |  | does not have a sufficiently | 26 | 100 | strong inhibition | side effects which occur already at low dosages | have not succeeded in ulcer therapy | 
CN(CC(O)CNC(=O)c1ccccc1C(F)(F)F)c1ccc(Cl)cc1 (stereo not drawn) [Compound 3, N1-(2-trifluoromethylbenzoyl)-N2-methyl-N2-(4-chlorophenyl)-1,3-diaminopropan-2-ol] |  | 0 | > 1470 |  |  |  |  |  |  | 40
CN(CC(O)CNC(=O)c1ccco1)c1ccc(Cl)cc1 (stereo not drawn) [Compound 4, N1-(2-furoyl)-N2-methyl-N2-(4-chlorophenyl)-1,3-diaminopropan-2-ol] | 44 | 0 | > 1470 |  |  |  |  |  |  | 
